Values joined by “and” are separate entries in the source; they are usually repeats but may differ in a detail not shown here. Identical values can stand only once.
Key:
[1] = tested on: HFHSD-fed obese C57BL6/J mice; assay: Intraperitoneal glucose tolerance test (ipGTT); type: in vivo, mouse; design: Figure 2H Average (glucose, ipGTT) / ipGTT / ipGTT glucose, Average / Blood glucose during glucose tolerance test (Figure 5L), Average: unit not given here; settings: 100 mg/kg/day
Description: (§1) Glucose tolerance was evaluated by the oral (OGTT) and intraperitoneal glucose tolerance test (ipGTT) after a 6-h fast. For the OGTT, glucose water (1 mg/g) was given by oral gavage, and tail blood glucose was measured with a glucometer (ACCU-CHEK Performa, Roche) at 0, 15, 30, 45, 60, 90, and 120 min. For the ipGTT, tail blood glucose was measured at 0, 15, 30, 45, 60, 90, and 120 min after intraperitoneal injection of glucose water (1 mg/g). For the insulin tolerance test (ITT), mice were fasted for 4 h and then injected intraperitoneally with 1 U/kg of insulin (Humulin R, Eli Lilly). Tail blood glucose was measured at 0, 15, 30, 45, 60, 90, 120, and 180 min.

[2] = tested on: HFHSD-fed obese C57BL6/J mice; assay: Insulin tolerance test (ITT); type: in vivo, mouse; design: Figure 2I Average (glucose, ITT) / ITT / ITT glucose, Average / Blood glucose during insulin tolerance test (Figure 5M), Average: unit not given here; settings: 100 mg/kg/day
Description: as §1

[3] = tested on: HFHSD-fed obese C57BL6/J mice; assay: Body weight / diet-induced obesity in HFHSD-fed mice; type: in vivo, mouse; settings: Figure 5J, 100 mg/kg/day, in g (unit assumed)
[4] = tested on: differentiated 3T3-L1 adipocytes; assay: Insulin-stimulated glucose uptake assay by (3H)2-deoxyglucose; type: cell-based, mouse; design: insulin-stimulated glucose uptake, Fig 1J replicates / Figure 5E raw value, insulin-stimulated glucose uptake (replicates): unit not given here
Description: The cell lines, which were tested for mycoplasma contamination and authenticated, were purchased from the Bioresource Collection and Research Center, Taiwan. All cells were cultured at 37 °C, 5% CO2 in a humidified incubator. HEK293T cells were maintained in DMEM (cat. no. SH30003.02, HyClone) supplemented with 10% fetal bovine serum (FBS) (cat. no. 04-001-1A, Biological Industries) and 1% antibiotic/antimycotic solution (cat. no. SV30079.01, HyClone). 3T3-L1 preadipocytes were maintained at ~70% confluence in DMEM with 10% calf serum (cat. no. 16170078, Gibco) and 1% antibiotic/antimycotic solution. For adipocyte differentiation, confluent 3T3-L1 cells (defined as day 0) were exposed to an induction medium containing 10% FBS, 1 μM dexamethasone (cat. no. D4902, Sigma-Aldrich), and 1 μg/ml insulin (Humulin R, Eli Lilly) in DMEM with or without 0.5 mM isobutyl-methylxanthine (cat. no. sc-201188A, Santa Cruz Biotechnology) as indicated. After two days, the medium was replaced with DMEM containing 10% FBS and 1 μg/ml insulin and was replenished every two days until assay.
Differentiated 3T3-L1 cells were starved with serum-free DMEM containing 0.2% BSA (cat. no. A9647, Sigma-Aldrich). Cells were rinsed twice with KRH buffer (137 mM NaCl, 4.7 mM KCl, 1.85 mM CaCl2, 1.3 mM MgSO4, 50 mM HEPES and 0.1% BSA, pH 7.4), and treated with or without […] insulin in the presence of 20 μM cytochalasin B (cat. no. 11328, Cayman Chemical), a GLUT inhibitor for measuring non-specific glucose uptake, for 30 min. Cells were then incubated with 0.5 μCi [^3H]-2-deoxy-D-Glucose (cat. no. NET328A001MC, PerkinElmer) and 0.1 μM 2-deoxy-D-Glucose (2DG) (cat. no. 14325, Cayman Chemical) for 5 min. Uptake of 2DG was terminated by rapidly removing medium and washing with ice-cold PBS three times. Cells were lysed with 0.1% SDS, and the radioactivity was measured using a liquid scintillation counter. Insulin-mediated glucose uptake was calculated by subtracting insulin-treated glucose uptake with basal glucose uptake.

SMILES: Cc1[nH]c2nc(C(C)N3CCN(c4ccccc4)CC3)nn2c(=O)c1Cc1ccc(F)cc1 (stereo not shown) [BPRPT245]
- Blood glucose during glucose tolerance test (Figure 5L), Average ([1]; time 0): 153.667
- Blood glucose during glucose tolerance test (Figure 5L), Average ([1]; time 15): 305
- Blood glucose during glucose tolerance test (Figure 5L), Average ([1]; time 30): 285.933
- Blood glucose during glucose tolerance test (Figure 5L), Average ([1]; time 45): 242.333
- Blood glucose during glucose tolerance test (Figure 5L), Average ([1]; time 60): 219.733
- Blood glucose during glucose tolerance test (Figure 5L), Average ([1]; time 90): 192.133
- Blood glucose during glucose tolerance test (Figure 5L), Average ([1]; time 120): 185.4
- Blood glucose during insulin tolerance test (Figure 5M), Average ([2]; time 0): 210.867
- Blood glucose during insulin tolerance test (Figure 5M), Average ([2]; time 15): 143.067
- Blood glucose during insulin tolerance test (Figure 5M), Average ([2]; time 30): 94.067
- Blood glucose during insulin tolerance test (Figure 5M), Average ([2]; time 45): 78.667
- Blood glucose during insulin tolerance test (Figure 5M), Average ([2]; time 60): 69.8
- Blood glucose during insulin tolerance test (Figure 5M), Average ([2]; time 90): 59.667
- Blood glucose during insulin tolerance test (Figure 5M), Average ([2]; time 120): 71.467
- Blood glucose during insulin tolerance test (Figure 5M), Average ([2]; time 180): 90.933
- Body weight, Average ([3]; week 0): 30.59
- Body weight, Average ([3]; week 1): 31.2
- Body weight, Average ([3]; week 2): 31.673
- Body weight, Average ([3]; week 3): 32.167
- Body weight, Average ([3]; week 4): 32.92
- Body weight, Average ([3]; week 5): 32.837
- Body weight, Average ([3]; week 6): 33.673
- Body weight, Average ([3]; week 7): 33.323
- Body weight, Average ([3]; week 8): 33.923
- Body weight, Average ([3]; week 9): 34.59
- Body weight, Average ([3]; week 10): 35.623
- Body weight, Average ([3]; week 11): 36.193
- Body weight, Average ([3]; week 12): 37.113
- Body weight, Average ([3]; week 13): 36.957
- Body weight, Average ([3]; week 14): 38.33
- Body weight, Average ([3]; week 15): 38.607
- Body weight, Average ([3]; week 16): 39.303
- Body weight, Average ([3]; week 17): 40.533
- Body weight, Average ([3]; week 18): 40.933
- Body weight, Average ([3]; week 19): 42.11
- Body weight, Average ([3]; week 20): 41.483
- Body weight, Average ([3]; week 21): 42.933
- Body weight, Average ([3]; week 22): 43.33
- Body weight, Average ([3]; week 23): 44.06
- Body weight, Average ([3]; week 24): 44.36
- Body weight, Average ([3]; week 25): 45.28

SMILES: CCCCCC(=O)CC[C@H]1[C@H](O)CC(=O)[C@@H]1C/C=C\CCCC(=O)O [13,14-dihydro-15-keto-PGE2]
- insulin-stimulated glucose uptake, Fig 1J replicates ([4]; 13,14dh-15kPGE2 5): 2.459 and 1.953 and 1.121 and 1.067
- insulin-stimulated glucose uptake ([4]; differentiated 3T3-L1 adipocytes): showed little effect

From PMC12081876, “Identification of PTGR2 inhibitors as a new therapeutic strategy for diabetes and obesity” (EMBO Molecular Medicine, 2025)
